The source of these data is US20160075653A1, “NEMATICIDAL N-(PHENYLCYCLOALKYL)CARBOXAMIDES AND N-(PHENYLCYCLOALKYL)THIOCARBOXAMIDES” (BAYER CROPSCIENCE AKTIENGESELLSCHAFT, priority 2013, published 2016).

The structures appear in SMILES notation. Read-outs that look alike come from different tables or passages of the source.

Series [1] concerns Meloidogyne incognita. In words: Meloidogyne incognita test (MELGIN), gall formation on salad seedlings. The conditions noted are these: application rate 20 ppm, after 14 days. It is filed as in vivo. How it is done: Meioidovnve incomita—Test (MELGIN)
Solvent: 125.0 parts by weight of acetone
To produce a suitable preparation of active compound, 1 part by weight of active compound is mixed with the stated amount of solvent, and the concentrate is diluted with water to the desired concentration.
Vessels are filled with sand, a solution of the active ingredient, a suspension containing eggs and larvae of the southern root-knot nematode (Meloidogyne incognita) and salad seeds. The salad seeds germinate and the seedlings grow. Galls develop in the roots.
After 14 days the nematicidal activity is determined on the basis of the percentage of gall formation. 100% means that no galls were found; 0% means the number of galls found on the roots of the treated plants was equal to that in untreated control plants.

Series [2] is described as follows: Measurement of log P values by HPLC on reversed phase columns (methods [a] pH 2.3, [b] pH 2.7, [c] pH 7.8). It is filed as physicochemical. The conditions noted are these: for chromatographic logP: reversed phase HPLC columns. In outline: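 Retention times were converted to log P by linear interpolation between linear alkan-2-one standards (3 to 16 carbons) of known log P. Eluents, each with 10% to 95% acetonitrile gradient: phosphoric acid 0.1% at pH 2.3 [a]; formic acid 0.1% at pH 2.7, LC-MS [b]; ammonium hydrogen carbonate 0.001 molar at pH 7.8, LC-MS [c].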

Setting [3] is: HPLC reversed phase, method [b] (pH 2.7).
Where [4] appears, read: HPLC-MS, method letter not given, read-out: log P.
Where [5] appears, read: HPLC on reversed phase column, method [b], pH 2.7.
Where [6] appears, read: method [b], HPLC reversed phase, pH 2.7.

With `O=C(N[C@@H]1CC[C@@H]1c1c(F)cccc1C(F)(F)F)c1cccnc1Cl` (relative stereo) [Compound 575], the “nematicidal activity (percentage of gall formation; 100% = no galls)” value in series [1] is 100%. Further, the logP in series [2] (setting [3]) was 2.83^[b].

Take `O=C(NC1CC1c1ccc(Cl)cc1Cl)c1ccccc1C(F)(F)F` (stereo not shown) [Compound 424]: the “nematicidal activity (percentage of gall formation; 100% = no galls)” value in series [1] came to 100%. For the same molecule, in series [2] (setting [3]), the logP was 3.46^[b].

In the case of `O=C(NC1CCCC1c1c(F)cccc1F)c1ccccc1Cl` (stereo not shown) [Compound 311], the “nematicidal activity (percentage of gall formation; 100% = no galls)” value in series [1] was 90%. Further, the logP in series [2] (setting [3]) was 3.24^[b].

With `O=C(N[C@@H]1CC[C@@H]1c1ccccc1Cl)c1cccnc1C(F)(F)F` (relative stereo) [Compound 254], the “nematicidal activity (percentage of gall formation; 100% = no galls)” value in series [1] is listed as 90%. Besides, the logP in series [2] (setting [3]) was 2.69^[b].

In the case of `O=C(N[C@@H]1CC[C@@H]1c1ccccc1Cl)c1ccccc1I` (relative stereo) [Compound 250], the “nematicidal activity (percentage of gall formation; 100% = no galls)” value in series [1] is recorded as 100%. The logP in series [2] (setting [3]) is 3.23^[b].

Take `O=C(N[C@@H]1C[C@@H]1c1ccc(Cl)cc1)c1nccnc1C(F)(F)F` (relative stereo) [Compound 532]: the “nematicidal activity (percentage of gall formation; 100% = no galls)” value in series [1] is listed as 100%. The logP in series [2] (setting [3]) is 2.68^[b]; in series [2] (HPLC reversed phase, method [c] pH 7.8) it was 2.65^[c];.

For `O=C(N[C@@H]1CC[C@@H]1c1ccc(F)cc1C(F)(F)F)c1ccccc1Br` (relative stereo) [Compound 491], the “nematicidal activity (percentage of gall formation; 100% = no galls)” value in series [1] was 100%. Moreover, the logP in series [2] (setting [3]) is 3.39^[b].

Take `O=C(NC1CCC1c1ccc(F)cc1C(F)(F)F)c1sccc1I` (stereo not shown) [Compound 519]: the “nematicidal activity (percentage of gall formation; 100% = no galls)” value in series [1] is 90%. The logP in series [2] (setting [3]) was 4.09^[b].

As for `O=C(N[C@@H]1CC[C@@H]1c1ccccc1Cl)c1ncccc1Cl` (relative stereo) [Compound 247, cis-3-chloro-N-[2-(2-chlorophenyl)cyclobutyl]pyridine-2-carboxamide], the “nematicidal activity (percentage of gall formation; 100% = no galls)” value in series [1] was determined as 100%. Besides, the chromatographic logP in series [2] (setting [4]) came out at 2.79; in series [2] (pH 2.7, HPLC reversed phase, method [b] (pH 2.7), read-out: logP) it was 2.79.

`O=C(N[C@@H]1CC[C@H]1c1ccc(F)cc1C(F)(F)F)c1ccccc1C(F)(F)F` (relative stereo) [Compound 494]: the “nematicidal activity (percentage of gall formation; 100% = no galls)” value in series [1] was 90%. Also, the logP in series [2] (setting [3]) is 3.72^[b].

In the case of `O=C(N[C@@H]1CC[C@@H]1c1c(F)cccc1C(F)(F)F)c1cccnc1C(F)(F)F` (relative stereo) [Compound 577], the “nematicidal activity (percentage of gall formation; 100% = no galls)” value in series [1] is recorded as 100%. Moreover, the logP in series [2] (setting [3]) was 3.81^[b].

On to `O=C(N[C@@H]1CC[C@@H]1c1ccc(F)cc1C(F)(F)F)c1nccnc1Cl` (relative stereo) [Compound 516], for which the “nematicidal activity (percentage of gall formation; 100% = no galls)” value in series [1] amounted to 100%. In addition, the logP in series [2] (setting [3]) was 2.89^[b].

As for `O=C(N[C@@H]1CC[C@@H]1c1cc(F)ccc1C(F)(F)F)c1c(F)cccc1F` (relative stereo) [Compound 549], in series [1], the “nematicidal activity (percentage of gall formation; 100% = no galls)” value was 100%. The logP in series [2] (setting [3]) was 3.22^[b].

Consider `O=C(N[C@@H]1C[C@@H]1c1ccc(Cl)cc1Cl)c1nccnc1C(F)(F)F` (relative stereo) [Compound 566], for which the “nematicidal activity (percentage of gall formation; 100% = no galls)” value in series [1] came to 90%. Besides, in series [2] (setting [3]), the logP is 3.11^[b].

`O=C(N[C@@H]1CC[C@@H]1c1ccc(F)cc1C(F)(F)F)c1c(F)cccc1F` (relative stereo) [Compound 493]: the “nematicidal activity (percentage of gall formation; 100% = no galls)” value in series [1] amounted to 100%. The logP in series [2] (setting [3]) is 3.18^[b].

In the case of `Cc1occc1C(=O)N[C@@H]1C[C@@H]1c1ccc(Cl)cc1Cl` (relative stereo) [Compound 611], the “nematicidal activity (percentage of gall formation; 100% = no galls)” value in series [1] is on record as 90%. Further, the logP in series [2] (setting [5]) was 3.02^[b]; in series [2] (HPLC on reversed phase column, method [c], pH 7.8), 2.89^[c];.

For the molecule `O=C(N[C@@H]1CC[C@@H]1c1ccc(F)cc1C(F)(F)F)c1ccccc1C(F)(F)F` (relative stereo) [Compound 495], the “nematicidal activity (percentage of gall formation; 100% = no galls)” value in series [1] worked out at 100%. For the same molecule, the logP in series [2] (setting [3]) is 3.51^[b].

In the case of `O=C(NC1CCCC1c1c(F)cccc1F)c1cccnc1C(F)(F)F` (stereo not shown) [Compound 313], the “nematicidal activity (percentage of gall formation; 100% = no galls)” value in series [1] is given as 100%. For the same molecule, the logP in series [2] (setting [3]) is 2.87^[b].

Take `O=C(N[C@@H]1CC[C@@H]1c1cc(F)ccc1C(F)(F)F)c1ccccc1Cl` (relative stereo) [Compound 528]: the “nematicidal activity (percentage of gall formation; 100% = no galls)” value in series [1] came to 100%. The logP in series [2] (setting [3]) was 3.34^[b].

For `O=C(N[C@@H]1CC[C@H]1c1ccccc1Cl)c1nccnc1Cl` (relative stereo) [Compound 548], in series [1], the “nematicidal activity (percentage of gall formation; 100% = no galls)” value was 100%. For the same molecule, the logP in series [2] (setting [3]) was 2.81^[b].

In the case of `O=C(NC1CCCC1c1ccccc1Br)c1cccnc1C(F)(F)F` (stereo not shown) [Compound 346], in series [1], the “nematicidal activity (percentage of gall formation; 100% = no galls)” value was found to be 100%. In series [2] (setting [3]), the logP was 3.13^[b].

In the case of `O=C(N[C@@H]1CC[C@@H]1c1cc(F)ccc1C(F)(F)F)c1sccc1I` (relative stereo) [Compound 570], the “nematicidal activity (percentage of gall formation; 100% = no galls)” value in series [1] is 100%. Also, the logP in series [2] (setting [3]) was 3.79^[b].

As to `O=C(NC1CCCC1c1ccccc1Br)c1cccnc1Cl` (stereo not shown) [Compound 348], in series [1], the “nematicidal activity (percentage of gall formation; 100% = no galls)” value was determined as 90%. The logP in series [2] (setting [3]) was 2.80^[b].

`O=C(NC1CCC1c1c(F)cccc1F)c1ccccc1Br` (stereo not shown) [Compound 227]: the “nematicidal activity (percentage of gall formation; 100% = no galls)” value in series [1] came out at 100%. Besides, in series [2] (setting [6]), the logP is 2.97^[b].

Turning to `CSc1ccccc1C(=O)N[C@@H]1CCC[C@@H]1c1ccc(F)c(F)c1` (relative stereo) [Compound 82], the “nematicidal activity (percentage of gall formation; 100% = no galls)” value in series [1] amounted to 90%. Further, the logP in series [2] (HPLC on reversed phase columns, method [b], pH 2.7) is 3.35^[b].

Regarding `O=C(NC1CCCC1c1ccccc1Cl)c1ccccc1C(F)(F)F` (stereo not shown) [Compound 296], the “nematicidal activity (percentage of gall formation; 100% = no galls)” value in series [1] was found to be 90%. The logP in series [2] (setting [3]) was 3.55^[b].

For `O=C(NC1CCC1c1ccccc1C(F)(F)F)c1c(F)cccc1F` (stereo not shown) [Compound 430], in series [1], the “nematicidal activity (percentage of gall formation; 100% = no galls)” value stood at 100%. In addition, in series [2] (setting [3]), the logP is 3.09^[b].

Take `O=C(N[C@@H]1CC[C@@H]1c1cc(F)ccc1C(F)(F)F)c1nccnc1Cl` (relative stereo) [Compound 559]: the “nematicidal activity (percentage of gall formation; 100% = no galls)” value in series [1] amounted to 100%. For the same molecule, in series [2] (setting [3]), the logP is 2.88^[b].

Consider `O=C(N[C@@H]1CC[C@@H]1c1cccc(F)c1C(F)(F)F)c1ccccc1Cl` (relative stereo) [Compound 601], for which the “nematicidal activity (percentage of gall formation; 100% = no galls)” value in series [1] is 100%. For the same molecule, the logP in series [2] (setting [5]) is 3.23^[b].

Regarding `O=C(NC1CCC1c1ccc(Cl)cc1Cl)c1c(F)cccc1F` (stereo not shown) [Compound 473], in series [1], the “nematicidal activity (percentage of gall formation; 100% = no galls)” value amounted to 90%. Also, the logP in series [2] (setting [3]) is 3.36^[b].

Regarding `O=C(N[C@@H]1CC[C@@H]1c1cccc(F)c1C(F)(F)F)c1cccnc1C(F)(F)F` (relative stereo) [Compound 641], in series [1], the “nematicidal activity (percentage of gall formation; 100% = no galls)” value came out at 100%. The logP in series [2] (setting [5]) is 2.97^[b].

`O=C(N[C@H]1CCC1c1c(F)cccc1F)c1cccnc1C(F)(F)F` (stereo in doubt) [Compound 236, cis-N-[2-(2,6-difluorophenyl)cyclobutyl]-2-(trifluoromethyl)nicotinamide]: the “nematicidal activity (percentage of gall formation; 100% = no galls)” value in series [1] is reported as 100%. The chromatographic logP in series [2] (setting [4]) is 2.6; in series [2] (pH 2.7, method [b], HPLC reversed phase, pH 2.7, read-out: logP), 2.6.

For the molecule `O=C(NC1CCC1c1ccccc1C(F)(F)F)c1ccccc1Br` (stereo not shown) [Compound 216], the “nematicidal activity (percentage of gall formation; 100% = no galls)” value in series [1] was determined as 100%. Also, the logP in series [2] (setting [6]) was 3.32^[b].

Consider `O=C(N[C@@H]1CC[C@@H]1c1ccccc1Cl)c1ccccc1Cl` (relative stereo) [Compound 248], for which, in series [1], the “nematicidal activity (percentage of gall formation; 100% = no galls)” value is reported as 90%. For the same molecule, in series [2] (setting [3]), the logP is 3.08^[b].

Regarding `O=C(N[C@@H]1CC[C@@H]1c1cccc(F)c1C(F)(F)F)c1cccnc1` (relative stereo) [Compound 631], the “nematicidal activity (percentage of gall formation; 100% = no galls)” value in series [1] worked out at 90%. Further, the logP in series [2] (setting [5]) was 2.12^[b].

With `O=C(NC1CCCC1c1ccccc1Br)c1ccccc1Cl` (stereo not shown) [Compound 349], in series [1], the “nematicidal activity (percentage of gall formation; 100% = no galls)” value is 90%. The logP in series [2] (setting [3]) was 3.52^[b].

Turning to `O=C(NC1CCC1c1c(F)cccc1F)c1ccccc1I` (stereo not shown) [Compound 440], the “nematicidal activity (percentage of gall formation; 100% = no galls)” value in series [1] is on record as 90%. For the same molecule, the logP in series [2] (setting [3]) was 3.13^[b].

On to `O=C(NC1CCC1c1c(F)cccc1F)c1ccccc1Cl` (stereo not shown) [Compound 443], for which the “nematicidal activity (percentage of gall formation; 100% = no galls)” value in series [1] was 90%. Besides, the logP in series [2] (setting [3]) is 2.97^[b].

On to `O=C(NC1CCC1c1cc(F)ccc1C(F)(F)F)c1ncccc1Cl` (stereo not shown) [Compound 518], for which the “nematicidal activity (percentage of gall formation; 100% = no galls)” value in series [1] is given as 100%. Further, the logP in series [2] (setting [3]) was 3.08^[b].
